Converted amounts (≈) assume the structure as drawn. Where two headings read alike, the source gives them in different places.
Assays:
L1210 cells = experiment: Cytotoxic activity against L1210 cells; assay type: cell-based; settings: Mus musculus, read-out: ED50, cytotoxic activity against L1210
How it was run: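 Log-phase L1210 cells (5×10^4 cells/ml) in Fisher medium exposed 48 h at 37 °C in CO2 to three dilutions of sample dissolved in ethanol or DMSO. Cells counted by haemacytometer; growth relative to control; ED50 (μg/ml) from linear regression of growth % on log concentration.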

HL-60 cells = experiment: Cytotoxic activity against HL-60 cells; assay type: cell-based; settings: Homo sapiens, read-out: ED50, cytotoxic activity against HL-60
Description: As in the test for the cytotoxic activity against L1210 cells, the test samples were dissoved in ethanol or dimethylsulfoxide in a certain concentration. 0.1 ml of the sample solution was mixed with 0.9 ml of a fresh medium to prepare the dilutions. To each two test tubes having a screw cap were added 100, 50, 25 μl, respectively, of the sample dilutions by means of a micropipet. To each test tube for the test group and the control group (2√n: n=number of the samples) was added 5 ml of the dilutions of HL-60 cells and K-562 cells which were cultured and activated before 24 hours from the beginning of experiment and then diluted in a concentration of 1×10^5 cells/mi. All test tubes were cultured for 48 hours in a CO2 incubator at 37° C. and then the number of cells was counted using a haemacytometer.
The ED50 value is defined as a concentration (μg/ml) of the sample which inhibits the growth of cancer cells by 50% of the control group and determined according to a method described in NIC's mannual (NIC=National Cancer Institue, U.S.A.). The growth rate Y(%) of cells in the presence of the test sample in each concentration was calculated according to the followign equation: […]
In the above equation, T means the average cell number per ml in the test group after incubation for 48 hours in the presence of the test samples in each concentration, C means the average cell number per ml in the control group after incubation for 48 hours, and Co means the average cell number per ml in the control group at the beginning of incubation. The Y(%) value at each concentration and log10 value of each concentration were obtained and the regression curve was constructed according to the following equation from those obtained values. In this case, when all the Y(%) value obtained at each concentration is greater than 55% or lower than 45%, the experiment was repeatedly conducted.
To construct the regression curve Y=A+BX the values A and B were obtained using the following equation. [formula]
In the above, the value N is the number of selected points which is greater than 2 and lower than, or identical with, the number of cencentration of the test sample, Xi is log(concentration) i, and Yi is the growth ratio at (concentration)i. The value of ED50 was obtained for those obtained slope and intercept.

A549 cancer cells = experiment: Cytotoxic activity against A549 cancer cells (sulforhodamin B method); assay type: cell-based; settings: Homo sapiens, read-out: ED50, cytotoxic activity against A549
How it was run: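 Cells seeded at 8×10^4 per well, attached 24 h, then exposed 48 h to six log-spaced concentrations in triplicate. TCA-fixed, SRB-stained, OD read at 520 nm; growth inhibition computed relative to time-zero and untreated counts, IC50 from regression.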

S-180 sarcoma cells = experiment: Animal experiment using Sarcoma S-180 cells (survival of mouse); assay type: in vivo, male ICR mouse; settings: for responders at 15 µmol/kg / response vs control in vivo at 15 µmol/kg: daily dose 15 μmole (mg/kg/day given per compound)
How it was run: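 Male ICR mice (20 to 25 g) received intraperitoneal transplants of 0.1 ml S-180 cell suspension (10^7 cells/ml), prepared from ascites by washing in cold physiological saline. After 24 hours, groups of 8 to 9 mice received 7 to 8 ip injections of sample in dimethylsulfoxide diluted with saline. Controls got 2% dimethylsulfoxide-saline. Survival (T/C, %) was scored against control death.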

[1] = A549 cells, SRB method, 48 hours
[2] = ip, 1200 h, S-180 ICR mouse, intraperitoneal, daily dose 10 μmole (mg/kg/day given per compound), 7 to 8 injections, read-out: Number of mouse survived for 50 days (converted)
[3] = ip, S-180 ICR mouse, intraperitoneal, daily dose 10 μmole (mg/kg/day given per compound), 7 to 8 injections, read-out: T/C
[4] = ip, 1200 h, S-180 ICR mouse, intraperitoneal, 7 to 8 injections, read-out: Number of mouse survived for 50 days (converted)
[5] = ip, S-180 ICR mouse, intraperitoneal, 7 to 8 injections, read-out: T/C
[6] = Mus musculus, S-180, ip, 1200 h, read-out: Number of mouse survived for 50 days
[7] = Mus musculus, S-180, ip, read-out: T/C

Structure (SMILES) | IC50 (L1210 cells; L1210 cells, 48 hours, 37° C.) | IC50 (HL-60 cells; HL-60 cells, 48 hours, 37° C.) | IC50 (A549 cancer cells; [1]) | responders at 10 µmol/kg (S-180 sarcoma cells; [2]) | response vs control in vivo at 10 µmol/kg (S-180 sarcoma cells; [3]) | responders at 15 µmol/kg (S-180 sarcoma cells; [4]) | response vs control in vivo at 15 µmol/kg (S-180 sarcoma cells; [5]) | IC50 (L1210 cells; L1210, 48 h) | IC50 (HL-60 cells; HL-60, 48 h) | IC50 (A549 cancer cells; A549, 48 h) | responders at 5 µmol/kg (S-180 sarcoma cells; [6]) | response vs control in vivo at 5 µmol/kg (S-180 sarcoma cells; [7]) | responders at 10 µmol/kg (S-180 sarcoma cells; [6]) | response vs control in vivo at 10 µmol/kg (S-180 sarcoma cells; [7])
CC(C)=CCC(OC(=O)CCl)C1=CC(=O)c2c(O)ccc(O)c2C1=O (stereo not shown) [2-(1-monochloroacetyloxy-4-methyl-3-pentenyl)-5,8-dihydroxy-1,4-naphthoquinone] | 0.12 µg/mL (≈ 0.329 µM) | 0.3 µg/mL (≈ 0.822 µM) | 4 µg/mL (≈ 11 µM) | 0% | 102% |  |  |  |  |  |  |  |  | 
CCCC(=O)OC(CC=C(C)C)C1=CC(=O)c2c(O)ccc(O)c2C1=O (stereo not shown) [2-(1-n-butanoyloxy-4-methyl-3-pentenyl)-5,8-dihydroxy-1,4-naphthoquinone] | 0.01 µg/mL (≈ 0.0279 µM) | 0.1 µg/mL (≈ 0.279 µM) | 2.5 µg/mL (≈ 6.98 µM) | 0% | 181% |  |  |  |  |  |  |  |  | 
CCCCCCCCCC(=O)OC(CC=C(C)C)C1=CC(=O)c2c(O)ccc(O)c2C1=O (stereo not shown) [2-(1-n-decanoyloxy-4-methyl-3-pentenyl)-5,8-dihydroxy-1,4-naphthoquinone] | 0.7 µg/mL (≈ 1.58 µM) | 1.1 µg/mL (≈ 2.49 µM) | 15 µg/mL (≈ 33.9 µM) |  |  | 0% | 110% |  |  |  |  |  |  | 
CCCCCC(=O)OC(CC=C(C)C)C1=CC(=O)c2c(O)ccc(O)c2C1=O (stereo not shown) [2-(1-n-hexanoyloxy-4-methyl-3-pentenyl)-5,8-dihydroxy-1,4-naphthoquinone] | 0.2 µg/mL (≈ 0.518 µM) | 0.7 µg/mL (≈ 1.81 µM) | 2.6 µg/mL (≈ 6.73 µM) | 33.3% | 214% |  |  |  |  |  |  |  |  | 
CCCCCCCCC(=O)OC(CC=C(C)C)C1=CC(=O)c2c(O)ccc(O)c2C1=O (stereo not shown) [2-(1-n-nonanoyloxy-4-methyl-3-pentenyl)-5,8-dihydroxy-1,4-naphthoquinone] | 0.5 µg/mL (≈ 1.17 µM) | 1 µg/mL (≈ 2.33 µM) | 6.9 µg/mL (≈ 16.1 µM) | 0% | 206% |  |  |  |  |  |  |  |  | 
CCCCCCCC(=O)OC(CC=C(C)C)C1=CC(=O)c2c(O)ccc(O)c2C1=O (stereo not shown) [2-(1-n-octanoyloxy-4-methyl-3-pentenyl)-5,8-dihydroxy-1,4-naphthoquinone] | 0.2 µg/mL (≈ 0.483 µM) | 0.7 µg/mL (≈ 1.69 µM) | 4.3 µg/mL (≈ 10.4 µM) |  |  | 22.2% | 235% |  |  |  |  |  |  | 
CCCCC(=O)OC(CC=C(C)C)C1=CC(=O)c2c(O)ccc(O)c2C1=O (stereo not shown) [2-(1-n-pentanoyloxy-4-methyl-3-pentenyl)-5,8-dihydroxy-1,4-naphthoquinone] | 0.2 µg/mL (≈ 0.537 µM) | 0.6 µg/mL (≈ 1.61 µM) | 2.5 µg/mL (≈ 6.71 µM) | 0% | 165% |  |  |  |  |  |  |  |  | 
CCC(=O)OC(CC=C(C)C)C1=CC(=O)c2c(O)ccc(O)c2C1=O (stereo not shown) [2-(1-n-propionyloxy-4-methyl-3-pentenyl)-5,8-dihydroxy-1,4-naphthoquinone] |  |  |  |  |  |  |  | 0.03 µg/mL (≈ 0.0871 µM) | 0.04 µg/mL (≈ 0.116 µM) | 1.9 µg/mL (≈ 5.52 µM) | 0% | 100% |  | 
CCCCCCCCCCCCCCCC(=O)OC(CC=C(C)C)C1=CC(=O)c2c(O)ccc(O)c2C1=O (stereo not shown) [2-(1-palmityloxy-4-methyl-3-pentenyl)-5,8-dihydroxy-1,4-naphthoquinone] | 2.1 µg/mL (≈ 3.99 µM) | 3 µg/mL (≈ 5.7 µM) | > 20 µg/mL |  |  | 0% | 109% |  |  |  |  |  |  | 
CC(C)=CCC(OC(=O)Cc1ccccc1)C1=CC(=O)c2c(O)ccc(O)c2C1=O (stereo not shown) [2-(1-phenylacetyloxy-4-methyl-3-pentenyl)-5,8-dihydroxy-1,4-naphthoquinone] | 0.1 µg/mL (≈ 0.246 µM) | 0.4 µg/mL (≈ 0.984 µM) | 1.1 µg/mL (≈ 2.71 µM) | 0% | 183% |  |  |  |  |  |  |  |  | 
CC(C)=CCC(OC(=O)C(Cl)(Cl)Cl)C1=CC(=O)c2c(O)ccc(O)c2C1=O (stereo not shown) [2-(1-trichloroacetyloxy-4-methyl-3-pentenyl)-5,8-dihydroxy-1,4-naphthoquinone] | 0.01 µg/mL (≈ 0.0231 µM) | 0.3 µg/mL (≈ 0.692 µM) | 2 µg/mL (≈ 4.61 µM) | 0% | 134% |  |  |  |  |  |  |  |  | 
C=CCCCCCCCCC(=O)OC(CC=C(C)C)C1=CC(=O)c2c(O)ccc(O)c2C1=O (stereo not shown) [2-(1-undecylenoyloxy-4-methyl-3-pentenyl)-5,8-dihydroxy-1,4-naphthoquinone] | 0.01 µg/mL (≈ 0.022 µM) | 0.3 µg/mL (≈ 0.66 µM) | 6.7 µg/mL (≈ 14.7 µM) |  |  | 0% | 110% |  |  |  |  |  |  | 
CC=CC=CC(=O)OC(CC=C(C)C)C1=CC(=O)c2c(O)ccc(O)c2C1=O (stereo not shown) [2-[1-(2,4-hexadienoyloxy)-4-methyl-3-pentenyl]-5,8-dihydroxy-1,4-naphthoquinone] | 0.5 µg/mL (≈ 1.31 µM) | 0.6 µg/mL (≈ 1.57 µM) | 0.7 µg/mL (≈ 1.83 µM) | 25% | 185% |  |  |  |  |  |  |  |  | 
CC(C)=CCC(OC(=O)C=C(C)C)C1=CC(=O)c2c(O)ccc(O)c2C1=O (stereo not shown) [2-[1-(3,3-dimethyl)acryloxy-4-methyl-3-pentenyl]-5,8-dihydroxy-1,4-naphthoquinone] | < 0.01 µg/mL | 0.05 µg/mL (≈ 0.135 µM) | 1.1 µg/mL (≈ 2.97 µM) |  |  |  |  |  |  |  |  |  | 25% | 179%
C=CCCC(=O)OC(CC=C(C)C)C1=CC(=O)c2c(O)ccc(O)c2C1=O (stereo not shown) [2-[1-(4-pentenoyl)oxy-4-methyl-3-pentenyl]-5,8-dihydroxy-1,4-naphthoquinone] | 0.02 µg/mL (≈ 0.054 µM) | 0.5 µg/mL (≈ 1.35 µM) | 1 µg/mL (≈ 2.7 µM) | 14.3% | 180% |  |  |  |  |  |  |  |  | 
C=CCCCCC(=O)OC(CC=C(C)C)C1=CC(=O)c2c(O)ccc(O)c2C1=O (stereo not shown) [2-[1-(6-heptenoyl)oxy-4-methyl-3-pentenyl]-5,8-dihydroxy-1,4-naphthoquinone] | 0.2 µg/mL (≈ 0.502 µM) | 0.5 µg/mL (≈ 1.25 µM) | 4.2 µg/mL (≈ 10.5 µM) | 12.5% | 192% |  |  |  |  |  |  |  |  | 
CCCCCC=CCC=CCCCCCCCC(=O)OC(CC=C(C)C)C1=CC(=O)c2c(O)ccc(O)c2C1=O (stereo not shown) [2-[1-(9,12-octadecadinoyloxy-4-methyl-3-pentenyl]-5,8-dihydroxy-1,4-naphthoquinone] | 5 µg/mL (≈ 9.08 µM) | 12.5 µg/mL (≈ 22.7 µM) | > 20 µg/mL |  |  | 0% | 100% |  |  |  |  |  |  | 
CC(C)=CCC(OC(=O)C=C(C)C=CC=C(C)C=CC1=C(C)CCCC1(C)C)C1=CC(=O)c2c(O)ccc(O)c2C1=O (stereo not drawn) [2-[1-(cis-retinoyl)oxy-4-methyl-3-pentenyl]-5,8-dihydroxy-1,4-naphthoquinone] | 7.1 µg/mL (≈ 12.4 µM) | 6.6 µg/mL (≈ 11.6 µM) | > 20 µg/mL |  |  | 0% | 125% |  |  |  |  |  |  | 
C=CCC/C=C/C(=O)OC(CC=C(C)C)C1=CC(=O)c2c(O)ccc(O)c2C1=O (stereo not drawn) [2-[1-(trans-2,6-heptadienoyloxy)-4-methyl-3-pentenyl]-5,8-dihydroxy-1,4-naphthoquinone] | 1.3 µg/mL (≈ 3.28 µM) | 0.9 µg/mL (≈ 2.27 µM) | 3.8 µg/mL (≈ 9.59 µM) | 12.5% | 180% |  |  |  |  |  |  |  |  | 
CC/C=C/C(=O)OC(CC=C(C)C)C1=CC(=O)c2c(O)ccc(O)c2C1=O (stereo not drawn) [2-[1-(trans-2-pentenoyloxy)-4-methyl-3-pentenyl]-5,8-dihydroxy-1,4-naphthoquinone] | 0.4 µg/mL (≈ 1.08 µM) | 0.9 µg/mL (≈ 2.43 µM) | 1.1 µg/mL (≈ 2.97 µM) |  |  | 14.3% | 210% |  |  |  |  |  |  | 

Reference: US5696276A, “Process for preparing 5,8-dihydroxynaphthoquinone derivatives, novel 5,8-dihydroxynaphthoquinone derivatives and their use as anticancer agent” (Kuhnil Pharmaceutical Co., Ltd., priority 1993, dated 1997)
